The results in this text go back to PubChem BioAssay (NCI).

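96-well plates; 48 h exposure; 5 concentrations. Endpoints by linear interpolation between flanking doses. Not reached: highest tested concentration assigned. GI50 = concentration required for 50% inhibition of growth. The concentration for full growth arrest is given as TGI.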 Some results are limits rather than exact numbers.

Holding throughout (test): growth of human tumour cells (NCI), 48 h
Test [1] concerns M14 melanoma.
The subject of test [2] is RXF 393 renal.
The test system of test [3] is KM12 colon.
The test system of test [4] is EKVX NSCLC.
Test [5] relates to MALME-3M melanoma.
In test [6] the test system is SF-268 CNS.
Test [7] has as its system HOP-62 NSCLC.
Test [8] has as its system HT29 colon.
The subject of test [9] is SF-539 CNS.

`CN(C)NC1=C([N+](=O)[O-])C=NN(c2ccccc2)C1`: the TGI in test [1] worked out at 3.23 µM; in test [2] it was 3.46 µM; in test [3], 11.9 µM; in test [4], 3.52 µM; in [5], 3.63 µM; in [6], 3.51 µM. Besides, the TGI was 4.33 µM in test [7], 3.66 µM in [8] and 3.31 µM in test [9].
`N#C/C(=C\c1c(O)cc(O)cc1O)C(N)=O`: the TGI in [1], in [2], in test [3], in test [4], in test [5] and in test [6] was more than 100 µM in each case. For the same compound, the TGI in [7], in test [8] and in [9] was more than 100 µM in each case.
Regarding `CCC12C=CCN(CCc3c([nH]c4ccccc34)/C=C\1)C2` (centres undefined), the TGI in test [1], in test [3], in test [4], in test [5], in test [6] and in [7] was more than 100 µM throughout. Besides, the TGI in test [8] and in test [9] was more than 100 µM throughout.
Take `O=C(O)c1ccc2c(c1)C(=O)N(c1ccc(S(=O)(=O)c3ccc(N4C(=O)c5ccc(C(=O)O)cc5C4=O)cc3)cc1)C2=O`: the TGI in test [1], in [2], in test [3], in test [4], in test [5] and in [6] was more than 100 µM in each case. Besides, the TGI in test [7], in [8] and in test [9] was more than 100 µM in each case.
For the compound `COC(=O)c1c(O)ccc(O)c1C(C(C)=O)C(C)=O`, the TGI in test [1], in test [2], in test [3], in test [4], in test [5] and in [6] was more than 100 µM each time. Also, the TGI in test [7], in test [8] and in [9] was more than 100 µM throughout.
Regarding `Cc1ccc2c(c1)-c1c3c(nn1C)-c1ccccc1SC3O2` (centres undefined), the TGI in test [2], in [3], in test [4], in test [5], in [6] and in [7] was more than 100 µM each time. For the same compound, the TGI in [8] and in [9] was more than 100 µM throughout.
With `O=C(/C=C/c1ccc(Cl)c(Cl)c1)c1ccccc1Cl`, the TGI in test [1] is 12.7 µM; in [2], 31.6 µM; in [3], 20.9 µM; in test [4] it was 31.4 µM; in test [5] it was 30.5 µM; in test [6] it was 13.9 µM. For the same compound, the TGI in test [7] came out at 34.2 µM; in test [8] it was 12.8 µM; in test [9] it was 12.2 µM.
As for `Cc1ccccc1NC(=O)/C(=N\NC(N)=S)C(C#N)c1ccccc1` (centres undefined), the TGI in test [1], in test [2], in test [3], in [4], in test [5] and in test [6] was more than 100 µM in each case. Further, the TGI in test [7], in test [8] and in test [9] was more than 100 µM in each case.
For the compound `Cc1cccc(C)c1NC(=O)CCC(=O)NC(N)=NC#N`, the TGI in test [1], in [2], in [3], in test [4], in test [5] and in test [6] was more than 100 µM each time. For the same compound, the TGI in test [7], in [8] and in [9] was more than 100 µM in each case.
Take `CCOC(=O)C1=C(C)NC(=O)NC1c1ccc(OC)cc1OC` (centres undefined): the TGI in test [1], in [2], in test [3], in [4], in test [5] and in test [6] was more than 100 µM each time. Besides, the TGI in [7] and in test [8] was more than 100 µM in each case.
In the case of `Nc1cccc2c1-c1c(cccc1[N+](=O)[O-])C2=O`, the TGI in test [1], in test [2], in [3], in [4], in [5] and in [6] was more than 100 µM each time. In addition, the TGI in [7], in [8] and in test [9] was more than 100 µM each time.
For the compound `O=c1nc2sc3ccccc3c(=O)n2[nH]1`, the TGI in test [1], in [2], in test [3], in [4], in [5] and in test [6] was more than 100 µM throughout. Also, the TGI in test [7], in test [8] and in [9] was more than 100 µM in each case.
For the compound `CC(=O)OCC1OC(n2cccnc2=O)C(OC(C)=O)C1OC(C)=O` (centres undefined), the TGI in test [1], in test [2], in [3], in test [4], in test [5] and in [6] was more than 100 µM in each case. In addition, the TGI in test [7] and in test [8] was more than 100 µM in each case.
In the case of `CC1(C)C(=O)OC(n2cc(F)c(=O)[nH]c2=O)C1=O` (centres undefined), the TGI in [1], in test [2], in [3], in [4], in [5] and in [6] was more than 100 µM in each case. In addition, the TGI in test [7], in [8] and in test [9] was more than 100 µM in each case.
Turning to `Cc1ccc(S(=O)(=O)OCOS(=O)(=O)c2ccc(C)cc2)cc1`, the TGI in test [1], in test [2], in test [3], in [4], in test [5] and in test [6] was more than 100 µM throughout. For the same compound, the TGI in [7] and in test [9] was more than 100 µM in each case.
For `N#Cc1c2ccccc2c(Cc2ccc3c(c2)OCCOCCOCCOCCOCCO3)c2ccccc12`, the TGI in [1] came out at 18 µM; in test [2], 7.94 µM; in test [3] it was 17.9 µM; in test [4], 35.9 µM; in test [5], 20.3 µM; in test [6] it was 21.1 µM. Also, the TGI was 23.6 µM in test [7] and 29.7 µM in [9].
With `CC(=Nc1ccc(N(C)C)cc1)c1ccccc1`, the TGI in test [1] is 29.9 µM; in test [2] it was 20.6 µM; in test [3], more than 100 µM; in test [4], more than 100 µM; in [5], 25.9 µM; in test [7] it was more than 100 µM. The TGI in test [8] is 73.4 µM; in [9], more than 100 µM.
On to `Cc1ccccc1NC(=O)Cc1nc2ccccc2s1`, for which the TGI came out at 25.2 µM in test [1]; 33 µM in test [2]; 31.3 µM in test [3]; 35.1 µM in test [4]; 30 µM in test [5]; 33 µM in [6]. Also, the results for the TGI in test [8] and in test [9] were 38.4 µM and 34.7 µM, respectively.
Turning to `CC1(C)c2ccccc2N2C(c3ccccc3)=NOC21C` (centres undefined), the TGI in test [1], in [2], in test [3], in test [4], in test [5] and in test [6] was more than 100 µM in each case. Also, the TGI in test [7], in test [8] and in test [9] was more than 100 µM throughout.
Take `C[P+]1(Cc2ccccc2)CCCC1`: the TGI in [1], in test [2], in [3], in test [4], in test [5] and in test [7] was more than 100 µM throughout. The TGI in [8] and in test [9] was more than 100 µM each time.
`CCOC(=O)C1=C(OC(OCC)C([Se]c2ccccc2)C(C)C)CCC1` (centres undefined): the TGI in [1] is 43.6 µM; in [2], 21.9 µM; in test [3], more than 100 µM; in test [4] it was 46.7 µM; in test [5], 81.9 µM; in test [6], 20 µM. Moreover, the TGI in [7] is more than 100 µM; in test [8], 41.7 µM; in [9] it was 30.8 µM.
As to `O=C(NC1CC1)c1c(O)[nH]c(=S)[nH]c1=O`, the TGI in test [1], in test [3], in test [5], in test [6], in [7] and in [8] was more than 100 µM each time. Besides, in [9], the TGI was more than 100 µM.
For `CC(=O)[CH-]C(=O)c1ccccc1.CC(=O)[CH-]C(=O)c1ccccc1.Cl.[O-]c1ccnc2ccccc12.[O-]c1ccnc2ccccc12.[Ti+4]`, the GI50 in test [1], in test [3], in test [4], in test [5], in test [6] and in test [7] was more than 100 µM each time. Besides, the GI50 in [8] and in test [9] was more than 100 µM in each case. Moreover, the TGI in test [1], in test [3], in test [4], in [5], in test [6] and in test [7] was more than 100 µM each time. The TGI in [8] and in [9] was more than 100 µM in each case.
Consider `Cc1cccc(NC(=O)C(=O)C(C2OC(=O)c3ccccc32)[N+](=O)[O-])c1C` (centres undefined), for which the TGI in [1] turned out to be 26.7 µM; in test [2], 20.7 µM; in test [3] it was 26.9 µM; in test [4], 46.3 µM; in test [5], 10.5 µM; in [6] it was 24.7 µM. In addition, the values for the TGI in test [7], in test [8] and in [9] were 31.1 µM, 35.1 µM and 34.9 µM, respectively.
For the compound `C/C=C/C(=O)Oc1cccc2cccnc12`, the TGI is 12 µM in test [1]; 41.1 µM in test [2]; 42.4 µM in test [3]; more than 81.3 µM in test [4]; 8.94 µM in [5]; 14.5 µM in test [6]. Moreover, the TGI in test [7] is more than 100 µM; in test [8], 58 µM; in [9], 40.1 µM.
Turning to `CC(=O)OC1CCC2OOC1O2` (centres undefined), the TGI in [1], in [2], in test [3], in test [4], in test [5] and in test [6] was more than 100 µM throughout. Moreover, the TGI in test [7], in test [8] and in [9] was more than 100 µM in each case.
Turning to `CN(C)NC(=O)/C(=C/c1ccc(Cl)cc1)NC(=O)c1ccccc1`, the TGI in test [1], in [2], in [3], in test [4], in [5] and in [6] was more than 100 µM in each case. In addition, the TGI in test [7], in test [8] and in test [9] was more than 100 µM in each case.
Consider `Cn1[nH]cc2ccc3nc4ccccc4c(=O)c3c21`, for which the TGI in test [1] is more than 100 µM; in [2], 44.4 µM; in test [3] it was more than 100 µM; in [4] it was more than 100 µM; in test [5], 68.7 µM; in [6] it was more than 100 µM. In addition, the TGI is more than 83.9 µM in test [7] and more than 100 µM in test [8].
Turning to `CCOC(=O)c1cc(=O)n(C)c(=O)n1C`, the TGI in test [1], in test [2], in [3], in [4], in test [5] and in [6] was more than 100 µM in each case. Also, the TGI in test [7], in test [8] and in test [9] was more than 100 µM each time.
Take `O=C(Nc1ccncc1)C(=O)c1cn(S(=O)(=O)c2cccc(Cl)c2)c2ccccc12`: the GI50 in test [1] was 4.09 µM; in test [2], 4.34 µM; in [3], 3.96 µM; in test [4], 5.16 µM; in test [5], 18.7 µM; in [6], 8.36 µM. The results for the GI50 in [7], in test [8] and in [9] were 7.26 µM, 3.62 µM and 4.61 µM, respectively. Moreover, the TGI is 32.6 µM in test [1]; 21.2 µM in [2]; more than 100 µM in test [3]; more than 100 µM in [4]; more than 100 µM in test [5]; more than 100 µM in test [6]. For the same compound, the TGI is 48.1 µM in test [7], more than 100 µM in [8] and 43.9 µM in test [9].
